Tests used:
Format in all cases: in vivo
IL-6 = experiment: Serum IL-6 by ELISA in mice subjected to HS/R; conditions: CO 250 ppm throughout HS/R, 4 hours after resuscitation, P<0.05 vs untreated HS/R mice
Procedure: (§1) Hemorrhagic shock was induced in mice as follows: C57/BL6 or il-10^−/− mice (Jackson Laboratories) (n=3/group) weighing 20-26 grams were anesthetized with pentobarbital (70 mg/kg; IP). The right and left femoral arteries were cannulated. The left arterial catheter was connected to a monitor to follow MAP and heart rate. Over 10 minutes, blood was withdrawn via the right catheter while monitoring blood pressure to achieve an MAP of 25 mmHg. Blood was withdrawn and returned to the animal as necessary in order to maintain a MAP of 25 mmHg. Sham animals were cannulated but not subjected to hemorrhage. At the end of the shock period (90-150 minutes), mice were resuscitated with the shed blood plus two times that volume with Ringer's lactate solution over 15-30 minutes. Animals were sacrificed 4-24 hours following the initiation of resuscitation and blood, liver, lungs, and intestines were collected.
(§2) Serum levels of the cytokines interleukin-6 (IL-6), tumor necrosis factor alpha (TNF-α), and interleukin-10 (IL-10) were determined by enzyme-linked immunosorbent assay (ELISA) (R&D systems) according to the manufacturer's instructions. These cytokines were measured because they mediate inflammation. Levels of pro-inflammatory cytokines can increase following hemorrhagic shock and can exacerbate hemodynamics and contribute to the development of multiple organ dysfunction. […]

IL-10 = experiment: Serum IL-10 by ELISA in mice subjected to HS/R; conditions: CO 250 ppm throughout HS/R, 4 hours after resuscitation, P<0.05 vs sham and shock controls
Procedure: as §1, §2

mice subjected to HS/R [1] = experiment: Serum ALT (liver injury) in mice subjected to HS/R
Procedure: as §1
A colorimetric analysis for serum alanine aminotransferase (ALT) level was used to determine whether liver injury occurred in mice subjected to HS/R. The alanine aminotransferase test is one of a group of tests known as liver function tests and is used to monitor damage to the liver. Alanine aminotransferase is an enzyme that is normally expressed in the liver and under normal circumstances is present in serum samples at very low levels. Increased levels of ALT in the serum are indicative of liver cell death and/or liver failure.
Mice were exposed to CO at a concentration of 250 ppm. Briefly, 1% CO in air was mixed with air (21% oxygen) in a stainless steel mixing cylinder and then directed into a 3.70 ft^3 glass exposure chamber at a flow rate of 12 L/min. A CO analyzer (Interscan, Chatsworth, Calif.) was used to measure CO levels continuously in the chamber. CO concentrations were maintained at 250 ppm at all times. Mice were placed in the exposure chamber as required. […]

mice subjected to HS/R [2] = experiment: Lung myeloperoxidase (MPO) activity in mice subjected to HS/R
mice subjected to HS/R [3] = experiment: Intestinal histology (H&E) in mice subjected to HS/R; conditions: CO 250 ppm throughout HS/R, 4 hours after resuscitation
Procedure: as §1
Harvested intestines were flushed and fixed in 2% paraformaldehyde for 2 hours and then 30% sucrose for 12 hours. Specimens were frozen slowly in cold 2-methylbutane. Sections were stained using hematoxylin and eosin (H&E) and architectural changes were evaluated.
Mice were exposed to CO at a concentration of 250 ppm. Briefly, 1% CO in air was mixed with air (21% oxygen) in a stainless steel mixing cylinder and then directed into a 3.70 ft^3 glass exposure chamber at a flow rate of 12 L/min. […]

[4] = tested on: hemorrhage-induced liver hypoxia; experiment: EF5 hypoxic imaging of liver in hemorrhaged mice
Procedure: as §1
The technique of observing uptake of EF5 (2-[2-nitro-1H-imidazol-1-yl]-N-(2,2,3,3,3-pentafluoropropyl) acetamide) to monitor tissue hypoxia is well established and reliable. […] Intensity of staining was determined by measuring mean fluorescence in 10 different sections per animal (n=5 per group; MetaMorph®). […] These forms of the compound bind irreversibly to proteins within the cell, which can then be detected by immunohistochemistry. […]

[5] = tested on: il-10−/− mice subjected to HS/R; experiment: Serum ALT in il-10−/− mice subjected to HS/R
Procedure: as §1
A colorimetric analysis for serum alanine aminotransferase (ALT) level was used to determine whether liver injury occurred in mice subjected to HS/R. The alanine aminotransferase test is one of a group of tests known as liver function tests and is used to monitor damage to the liver. Alanine aminotransferase is an enzyme that is normally expressed in the liver and under normal circumstances is present in serum samples at very low levels. […]

[6] = tested on: il-10−/− mice subjected to HS/R; experiment: Lung MPO activity in il-10−/− mice subjected to HS/R
[7] = CO 250 ppm throughout HS/R, 4 hours after resuscitation, P<0.05

[C-]#[O+] [CO, carbon monoxide]
HS/R-induced increase in serum IL-6 (IL-6): significantly abrogated
increase in serum IL-10 levels in shocked mice (IL-10): 5.4 fold
serum ALT compared to untreated mice (mice subjected to HS/R [1]; [7]): significantly lowered
serum ALT compared to untreated shocked mice (mice subjected to HS/R [1]; CO during resuscitation only, 24 hours after resuscitation): significantly lower
protection against liver injury (mice subjected to HS/R [1]; CO initiated during resuscitation only, 4-hour time point following resuscitation (data not shown)): no demonstrable protection
lung MPO activity compared to untreated mice (mice subjected to HS/R [2]; [7]): significantly lowered
lung MPO activity (mice subjected to HS/R [2]; CO initiated during resuscitation only, after 4 hours): significantly improved
intestinal histology of CO-treated shocked mice (mice subjected to HS/R [3]): more closely resembled CO- and air-treated sham controls
liver hypoxia (EF5) compared to air-treated sham controls ([4]; CO-treated sham controls, 250 ppm): no increase
increase in liver EF5 staining compared to air-treated sham controls ([4]; shocked mice, CO 250 ppm initiated at onset of shock, 90 minutes after initiation of shock, P<0.05 vs air-treated shocked mice): 3.7±0.7 fold
protection against HS/R-induced liver injury (serum ALT) [5]: did not appear to protect
protection against HS/R-induced lung injury (lung MPO activity) [6]: did not appear to protect
